From patent US8431556B2, “C-21-keto lupane derivatives preparation and use thereof” (Vertex Pharmaceuticals Incorporated, priority 2008, dated 2013)
Like-named read-outs stand apart in the source and are kept apart here.

Tested on: HIV-1 (HIVIIIB)
Experiment: HIV-1 replication in MT2 cell line with and without 30% human serum (viral RT activity in supernatant)
Assay type: cell-based
Details: Human immunodeficiency virus 1, MT2, MT-2 cells, average IC50 if tested more than once
Procedure: HIV-1 Replication in MT2 cell line with and without 30% human serum: The cells are infected at a Multiciplicity of Infection (MOI) of 0.5 for 3 h and then washed twice with complete media to remove residual virus. Cells are then resuspended at 0.5×10^6/ml in complete medium (RPMI, 10% FBS, 1% sodium pyruvate), and seeded into 96-well plates (6.25×10^4/well). The cells are cultured in the presence or absence of various concentrations of test compounds in serial dilutions for 3 days at 37° C. The test compounds are serially diluted in complete medium supplemented or not with 30% human serum. After 3 days, 100 μL of cultured medium with cells are replaced with 120 μL of freshly diluted test compounds in complete medium containing or not 30% Human serum. The level of HIV-1 replication is determined at days 5 after infection by the presence of viral RT activity in harvested supernatant fluid. The IC50 and IC90 values for the virus replication are determined by using GRAPHPAD PRISM software.
The IC50 of the compounds tested in accordance with the HIV replication activity assay MT-2 (HIVIIIB) are represented in Table 4 (without HS) and Table 5 (with 30% HS)

[1] = with 30% human serum, read-out: MT-2 (HIVIIIB) with 30% HS IC50 range

Compound `CC(=O)NC1CCN(C(=O)[C@@]23CC[C@]4(C)[C@H](CC[C@@H]5[C@@]6(C)CC[C@H](OC(=O)CC(C)(C)C(=O)O)C(C)(C)[C@@H]6CC[C@]54C)C2=C(C(C)C)C(=O)C3)CC1` [9-43, 3β-O-(3′,3′-Dimethylsuccinyl)-21-oxolup-18-en-28-oic acid N-(4-acetylamino-1-piperidine)-acetamide] has an IC50 [1] of under 199 nM.
For `CC(C)C1=C2[C@H]3CC[C@@H]4[C@@]5(C)CC[C@H](OC(=O)CC(C)(C)C(=O)O)C(C)(C)[C@@H]5CC[C@@]4(C)[C@]3(C)CC[C@@]2(C(=O)Nc2ccncc2)CC1=O` [9-52, 3β-O-(3′,3′-Dimethylsuccinyl)-21-oxolup-18-en-28-oic acid N-pyridin-4-yl-acetamide], the IC50 [1] was under 199 nM.
Work on `Cc1nnc(NC(=O)[C@@]23CC[C@]4(C)[C@H](CC[C@@H]5[C@@]6(C)CC[C@H](OC(=O)CC(C)(C)C(=O)O)C(C)(C)[C@@H]6CC[C@]54C)C2=C(C(C)C)C(=O)C3)s1` [9-76, 3β-O-(3′,3′-Dimethylsuccinyl)-21-oxolup-18-en-28-oic acid N-(5-methyl-[1,3,4]thiadiazol-2-yl)-acetamide] yielded an IC50 [1] of under 199 nM.
With `CC(C)NC(=O)[C@@]12CC[C@]3(C)[C@H](CC[C@@H]4[C@@]5(C)CC[C@H](OC(=O)CC(C)(C)C(=O)O)C(C)(C)[C@@H]5CC[C@]43C)C1=C(C(C)C)C(=O)C2` [9-3, 3β-O-(3′,3′-Dimethylsuccinyl)-21-oxolup-18-en-28-oic acid N-isopropylamide] the IC50 (without HS, read-out: MT-2 (HIVIIIB) IC50 range) was under 199 nM.
For `CC(C)C1=C2[C@H]3CC[C@@H]4[C@@]5(C)CC[C@H](OC(=O)CC(C)(C)C(=O)O)C(C)(C)[C@@H]5CC[C@@]4(C)[C@]3(C)CC[C@@]2(C(=O)NCc2ccc(Cl)cc2)CC1=O` [9-14, 3β-O-(3′,3′-Dimethylsuccinyl)-21-oxolup-18-en-28-oic acid N-4-chloro-benzylamide], the IC50 [1] was under 199 nM.
With `CC(C)C1=C2[C@H]3CC[C@@H]4[C@@]5(C)CC[C@H](OC(=O)CC(C)(C)C(=O)O)C(C)(C)[C@@H]5CC[C@@]4(C)[C@]3(C)CC[C@@]2(C(=O)NC(C)(C)c2ccccc2)CC1=O` [9-34, 3β-O-(3′,3′-Dimethylsuccinyl)-21-oxolup-18-en-28-oic acid N-(1-methyl-1-phenyl-ethyl)-acetamide] the IC50 [1] was under 199 nM.
For `CC(C)C1=C2C3CCC4[C@@]5(C)CC[C@H](OC(=O)CC(C)(C)C(=O)O)C(C)(C)C5CC[C@@]4(C)[C@]3(C)CC[C@@]2(C(=O)NC[C@H]2CCCN2C(=O)OC(C)(C)C)CC1=O` (stereo partly drawn) [9-79, 3β-O-(3′,3′-Dimethylsuccinyl)-21-oxolup-18-en-28-oic acid N-(R)-2-acetylaminomethyl-pyrrolidine-1-carboxylic acid tert-butyl ester], the IC50 [1] was under 199 nM.
`CC(C)C1=C2[C@H]3CC[C@@H]4[C@@]5(C)CC[C@H](OC(=O)CC(C)(C)C(=O)O)C(C)(C)[C@@H]5CC[C@@]4(C)[C@]3(C)CC[C@@]2(C(=O)N2CCNC(=O)C2)CC1=O` [9-37, 3β-O-(3′,3′-Dimethylsuccinyl)-21-oxolup-18-en-28-oic acid N-4-piperazi-2-one acetamide] gave an IC50 [1] of under 199 nM.
`CC(C)C1=C2C3CCC4[C@@]5(C)CC[C@H](OC(=O)CC(C)(C)C(=O)O)C(C)(C)C5CC[C@@]4(C)[C@]3(C)CC[C@@]2(C(=O)Nc2ccccc2Cl)CC1=O` (stereo partly drawn) [9-86, 3β-O-(3′,3′-Dimethylsuccinyl)-21-oxolup-18-en-28-oic acid N-2-chloro-phen-1-yl acetamide] gave an IC50 [1] of under 199 nM.
With `Cc1nnc(NC(=O)[C@@]23CC[C@]4(C)[C@H](CC[C@@H]5[C@@]6(C)CC[C@H](OC(=O)CC(C)(C)C(=O)O)C(C)(C)[C@@H]6CC[C@]54C)C2=C(C(C)C)C(=O)C3)o1` [9-62, 3β-O-(3′,3′-Dimethylsuccinyl)-21-oxolup-18-en-28-oic acid N-(5-methyl-[1,3,4]oxadiazol-2-yl)-acetamide] the IC50 [1] was 200 to 999 nM.
Work on `CC(C)C1=C2[C@H]3CC[C@@H]4[C@@]5(C)CC[C@H](OC(=O)CC(C)(C)C(=O)O)C(C)(C)[C@@H]5CC[C@@]4(C)[C@]3(C)CC[C@@]2(C(=O)Nc2ccn(C)n2)CC1=O` [9-53, 3β-O-(3′,3′-Dimethylsuccinyl)-21-oxolup-18-en-28-oic acid N-3-amino-1-methyl-1H-pyrazole-acetamide] yielded an IC50 [1] of under 199 nM.
`CC(C)C1=C2[C@H]3CC[C@@H]4[C@@]5(C)CC[C@H](OC(=O)CC(C)(C)C(=O)O)C(C)(C)[C@@H]5CC[C@@]4(C)[C@]3(C)CC[C@@]2(C(=O)NC(C)c2ccccc2)CC1=O` (stereo partly drawn) [9-33, 3β-O-(3′,3′-Dimethylsuccinyl)-21-oxolup-18-en-28-oic acid N-(1-phenyl-ethyl)-acetamide] was tested, and the IC50 [1] was under 199 nM.
With `CC(C)C1=C2[C@H]3CC[C@@H]4[C@@]5(C)CC[C@H](OC(=O)CC(C)(C)C(=O)O)C(C)(C)[C@@H]5CC[C@@]4(C)[C@]3(C)CC[C@@]2(C(=O)Nc2nnnn2C)CC1=O` [9-66, 3β-O-(3′,3′-Dimethylsuccinyl)-21-oxolup-18-en-28-oic acid N-(1-methyl-1H-tetrazol-5-yl)-acetamide] the IC50 [1] was 200 to 999 nM.
`CC(C)C1=C2[C@H]3CC[C@@H]4[C@@]5(C)CC[C@H](OC(=O)CC(C)(C)C(=O)O)C(C)(C)[C@@H]5CC[C@@]4(C)[C@]3(C)CC[C@@]2(C(=O)Nc2ccccc2C(F)(F)F)CC1=O` [9-65, 3β-O-(3′,3′-Dimethylsuccinyl)-21-oxolup-18-en-28-oic acid N-2-trifluoromethyl-phen-1-yl acetamide] gave an IC50 [1] of under 199 nM.
`CC(C)C1=C2C3CCC4[C@@]5(C)CC[C@H](OC(=O)CC(C)(C)C(=O)O)C(C)(C)C5CC[C@@]4(C)[C@]3(C)CC[C@@]2(C(=O)NC[C@@H]2CCCN2C)CC1=O` (stereo partly drawn) [9-84, 3β-O-(3′,3′-Dimethylsuccinyl)-21-oxolup-18-en-28-oic acid N-((S)-1-methyl-pyrrolidin-2-ylmethyl)-acetamide] was tested, and the IC50 [1] was under 199 nM.
`COC(=O)N1CCN(C(=O)[C@@]23CC[C@]4(C)[C@H](CC[C@@H]5[C@@]6(C)CC[C@H](OC(=O)CC(C)(C)C(=O)O)C(C)(C)[C@@H]6CC[C@]54C)C2=C(C(C)C)C(=O)C3)CC1` [9-40, 3β-O-(3′,3′-Dimethylsuccinyl)-21-oxolup-18-en-28-oic acid N-1-acetyl-piperazine-4-carboxylic acid methyl ester] showed an IC50 [1] of under 199 nM.
With `CC(C)C1=C2[C@H]3CC[C@@H]4[C@@]5(C)CC[C@H](OC(=O)CC(C)(C)C(=O)O)C(C)(C)[C@@H]5CC[C@@]4(C)[C@]3(C)CC[C@@]2(C(=O)N2CCCCC2)CC1=O` [9-6, 3β-O-(3′,3′-Dimethylsuccinyl)-21-oxolup-18-en-28-oic acid N-piperidinyl acetamide] the IC50 [1] was under 199 nM.
Compound `CC(C)OC(=O)NC1CCN(C(=O)[C@@]23CC[C@]4(C)[C@H](CC[C@@H]5[C@@]6(C)CC[C@H](OC(=O)CC(C)(C)C(=O)O)C(C)(C)[C@@H]6CC[C@]54C)C2=C(C(C)C)C(=O)C3)CC1` [9-68, 3β-O-(3′,3′-Dimethylsuccinyl)-21-oxolup-18-en-28-oic acid N-(4-aminocarboxylic acid isopropyl ester-1-piperidine)-acetamide] has an IC50 [1] of under 199 nM.
For `CC(C)C1=C2[C@H]3CC[C@@H]4[C@@]5(C)CC[C@H](OC(=O)CC(C)(C)C(=O)O)C(C)(C)[C@@H]5CC[C@@]4(C)[C@]3(C)CC[C@@]2(C(=O)NCc2ccncc2)CC1=O` [9-18, 3β-O-(3′,3′-Dimethylsuccinyl)-21-oxolup-18-en-28-oic acid N-pyridin-4-ylmethylamide], the IC50 [1] was under 199 nM.
Compound `COC(=O)NCCNC(=O)[C@@]12CC[C@]3(C)[C@H](CC[C@@H]4[C@@]5(C)CC[C@H](OC(=O)CC(C)(C)C(=O)O)C(C)(C)[C@@H]5CC[C@]43C)C1=C(C(C)C)C(=O)C2` [9-24, 3β-O-(3′,3′-Dimethylsuccinyl)-21-oxolup-18-en-28-oic acid N-(2-acetylamino-ethyl)-carbamic acid methyl ester] has an IC50 [1] of under 199 nM.
`CC(C)NC(=O)NC1CCN(C(=O)[C@@]23CC[C@]4(C)[C@H](CC[C@@H]5[C@@]6(C)CC[C@H](OC(=O)CC(C)(C)C(=O)O)C(C)(C)[C@@H]6CC[C@]54C)C2=C(C(C)C)C(=O)C3)CC1` [9-44, 3β-O-(3′,3′-Dimethylsuccinyl)-21-oxolup-18-en-28-oic acid N-[(4-amino-N′-isopropylureido)-1-piperidine]-acetamide] showed an IC50 [1] of under 199 nM.
In the case of `Cc1cccc(NC(=O)[C@@]23CC[C@]4(C)[C@H](CC[C@@H]5[C@@]6(C)CC[C@H](OC(=O)CC(C)(C)C(=O)O)C(C)(C)[C@@H]6CC[C@]54C)C2=C(C(C)C)C(=O)C3)c1` [9-48, 3β-O-(3′,3′-Dimethylsuccinyl)-21-oxolup-18-en-28-oic acid N-3-methyl-phen-1-yl acetamide], the IC50 [1] is reported as under 199 nM.
Work on `CC(C)C1=C2C3CCC4[C@@]5(C)CC[C@H](OC(=O)CC(C)(C)C(=O)O)C(C)(C)C5CC[C@@]4(C)[C@]3(C)CC[C@@]2(C(=O)NC(C)(C)C(F)(F)F)CC1=O` (stereo partly drawn) [9-77, 3β-O-(3′,3′-Dimethylsuccinyl)-21-oxolup-18-en-28-oic acid N-(2,2,2-trifluoro-1,1-dimethyl-ethyl)-acetamide] yielded an IC50 [1] of under 199 nM.
`CC(C)C1=C2C3CCC4[C@@]5(C)CC[C@H](OC(=O)CC(C)(C)C(=O)O)C(C)(C)C5CC[C@@]4(C)[C@]3(C)CC[C@@]2(C(=O)NC[C@H]2CCCN2)CC1=O` (stereo partly drawn) [9-81, 3β-O-(3′,3′-Dimethylsuccinyl)-21-oxolup-18-en-28-oic acid N-((R)-1-pyrrolidin-2-ylmethyl)-acetamide] was tested, and the IC50 [1] was under 199 nM.
